Test results: ChEMBL document CHEMBL1140580, “Synthesis and characterization of trans-4-(4-chlorophenyl)pyrrolidine-3-carboxamides of piperazinecyclohexanes as ligands for the melanocortin-4 receptor” (Bioorg Med Chem Lett, 2007)

Legend:
Melanocortin receptor 4 [1] = molecular target: T1, Melanocortin receptor 4 (Homo sapiens, UniProt P32245); experiment: Displacement of […]NDPMSH from human MC4R expressed in HEK293 cells; format: cell-based
Melanocortin receptor 4 [2] = molecular target: T1, Melanocortin receptor 4; experiment: Agonist activity at MC4R assessed as stimulation of cAMP release relative to alphaMSH; format: functional
Melanocortin receptor 4 [3] = molecular target: T1, Melanocortin receptor 4; experiment: Antagonist activity at MC4R assessed as inhibition of alpha-MSH-stimulated cAMP release; format: functional
Melanocortin receptor 4 [4] = molecular target: T1, Melanocortin receptor 4; experiment: Agonist activity at MC4R assessed as stimulation of cAMP release; format: functional
[5] = molecular target: Melanocyte-stimulating hormone receptor (Homo sapiens, UniProt Q01726); experiment: Binding affinity to MC1R
Melanocyte-stimulating hormone receptor, sequence (Q01726 whole entry): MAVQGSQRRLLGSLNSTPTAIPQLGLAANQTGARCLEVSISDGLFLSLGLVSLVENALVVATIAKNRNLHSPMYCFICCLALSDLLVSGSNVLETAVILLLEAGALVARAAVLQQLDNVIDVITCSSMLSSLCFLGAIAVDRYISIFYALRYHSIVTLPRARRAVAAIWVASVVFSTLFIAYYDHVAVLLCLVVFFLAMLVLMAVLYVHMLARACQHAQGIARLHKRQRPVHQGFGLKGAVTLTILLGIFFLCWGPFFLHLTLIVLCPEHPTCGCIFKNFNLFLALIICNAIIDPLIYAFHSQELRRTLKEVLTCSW

Melanocortin receptor 3 = Melanocortin receptor 3 (Homo sapiens, UniProt P41968); experiment: Binding affinity to MC3R
Melanocortin receptor 3, sequence (P41968 whole entry): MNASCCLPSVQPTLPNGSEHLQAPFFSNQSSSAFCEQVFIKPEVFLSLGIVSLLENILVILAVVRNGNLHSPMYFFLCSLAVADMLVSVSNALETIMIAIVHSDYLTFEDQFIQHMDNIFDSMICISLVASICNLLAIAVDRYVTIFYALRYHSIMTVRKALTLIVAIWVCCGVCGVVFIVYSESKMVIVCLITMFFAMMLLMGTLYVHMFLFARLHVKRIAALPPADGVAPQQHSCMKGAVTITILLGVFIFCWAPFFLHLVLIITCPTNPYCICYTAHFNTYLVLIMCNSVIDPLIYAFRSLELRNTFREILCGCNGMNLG

Melanocortin receptor 5 = Melanocortin receptor 5 (Homo sapiens, UniProt P33032); experiment: Binding affinity to MC5R
Melanocortin receptor 5, sequence (P33032 whole entry, looked up): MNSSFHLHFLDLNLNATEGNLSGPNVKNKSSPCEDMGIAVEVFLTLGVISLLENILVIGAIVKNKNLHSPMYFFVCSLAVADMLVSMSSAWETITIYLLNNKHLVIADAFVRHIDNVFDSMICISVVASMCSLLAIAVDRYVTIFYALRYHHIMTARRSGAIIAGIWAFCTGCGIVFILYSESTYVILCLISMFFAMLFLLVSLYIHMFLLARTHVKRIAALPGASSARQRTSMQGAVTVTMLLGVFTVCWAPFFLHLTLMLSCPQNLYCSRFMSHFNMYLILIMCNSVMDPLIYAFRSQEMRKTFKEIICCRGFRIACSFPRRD

Melanocortin receptor 4 [6] = molecular target: Melanocortin receptor 4 (Mus musculus, UniProt P56450); experiment: Binding affinity to mouse MC4R
Melanocortin receptor 4 (Mus musculus, UniProt P56450), sequence (P56450 whole entry): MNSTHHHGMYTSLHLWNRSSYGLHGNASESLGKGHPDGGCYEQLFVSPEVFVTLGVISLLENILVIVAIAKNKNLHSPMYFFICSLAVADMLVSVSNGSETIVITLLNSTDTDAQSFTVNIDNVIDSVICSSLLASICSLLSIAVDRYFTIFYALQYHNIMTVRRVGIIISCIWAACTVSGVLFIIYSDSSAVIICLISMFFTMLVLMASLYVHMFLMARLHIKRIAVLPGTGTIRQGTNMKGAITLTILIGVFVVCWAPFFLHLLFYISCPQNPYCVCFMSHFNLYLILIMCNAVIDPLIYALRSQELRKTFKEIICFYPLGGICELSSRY

T1 sequence (P32245 whole entry): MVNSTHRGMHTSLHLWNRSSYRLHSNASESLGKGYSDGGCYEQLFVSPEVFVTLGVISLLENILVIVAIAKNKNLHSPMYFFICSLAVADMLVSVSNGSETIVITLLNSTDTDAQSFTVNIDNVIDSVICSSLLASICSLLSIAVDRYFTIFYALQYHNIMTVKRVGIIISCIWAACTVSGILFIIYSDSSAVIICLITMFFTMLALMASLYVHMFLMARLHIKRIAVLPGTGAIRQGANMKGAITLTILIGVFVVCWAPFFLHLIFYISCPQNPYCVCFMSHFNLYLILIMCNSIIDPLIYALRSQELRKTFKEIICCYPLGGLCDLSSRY

**Q.** Which results are given for `CC(C)N1C[C@H](C(=O)N2CCN(C3(CNCc4ccncc4)CCCCC3)CC2)[C@@H](c2ccc(Cl)cc2)C1`?
**A.** Ki (Melanocortin receptor 4 [1]): 0.027 µM; Intrinsic activity (Melanocortin receptor 4 [2]): 27%; IC50 (Melanocortin receptor 4 [3]): 0.41 µM; EC50 (Melanocortin receptor 4 [4]): 0.78 µM

**Q.** `CC(=O)Nc1ccc(CNCC2(N3CCN(C(=O)[C@H]4CN(C(C)C)C[C@@H]4c4ccc(Cl)cc4)CC3)CCCCC2)cc1` was tested. Which Ki (Melanocortin receptor 4 [1]) did it give?
**A.** The Ki was 0.029 µM.

**Q.** What about the Intrinsic activity (Melanocortin receptor 4 [2]) of the same compound?
**A.** The Intrinsic activity was 27%.

**Q.** What about the EC50 (Melanocortin receptor 4 [4]) of the same compound?
**A.** The EC50 was 0.19 µM.

**Q.** For `CC(C)N1C[C@H](C(=O)N2CCN(C3(CNCc4cccnc4)CCCCC3)CC2)[C@@H](c2ccc(Cl)cc2)C1`, which Ki (Melanocortin receptor 4 [1]) is on record?
**A.** Its Ki is 0.035 µM.

**Q.** And the Intrinsic activity (Melanocortin receptor 4 [2])?
**A.** Its Intrinsic activity is 72%.

**Q.** And the EC50 (Melanocortin receptor 4 [4])?
**A.** Its EC50 is 0.39 µM.

**Q.** For `CC(C)N1C[C@H](C(=O)N2CCN(C3(CNCc4ccccc4)CCCCC3)CC2)[C@@H](c2ccc(Cl)cc2)C1`, which Ki (Melanocortin receptor 4 [1]) is on record?
**A.** The Ki was 0.026 µM.

**Q.** What about the Intrinsic activity (Melanocortin receptor 4 [2]) of the same compound?
**A.** The Intrinsic activity was 31%.

**Q.** And the EC50 (Melanocortin receptor 4 [4])?
**A.** Its EC50 is 1.1 µM.

**Q.** `CC(C)N1C[C@H](C(=O)N2CCN(C3(CNCc4ccccc4F)CCCCC3)CC2)[C@@H](c2ccc(Cl)cc2)C1` was tested. Which Ki (Melanocortin receptor 4 [1]) did it give?
**A.** The Ki was 0.012 µM.

**Q.** And the Intrinsic activity (Melanocortin receptor 4 [2])?
**A.** The Intrinsic activity was 48%.

**Q.** And the EC50 (Melanocortin receptor 4 [4])?
**A.** Its EC50 is 0.58 µM.

**Q.** For `CC(C)N1C[C@H](C(=O)N2CCN(C3(CNCc4c[nH]cn4)CCCCC3)CC2)[C@@H](c2ccc(Cl)cc2)C1`, which Ki (Melanocortin receptor 4 [1]) is on record?
**A.** Its Ki is 0.22 µM.

**Q.** What about the Intrinsic activity (Melanocortin receptor 4 [2]) of the same compound?
**A.** The Intrinsic activity was 49%.

**Q.** And the EC50 (Melanocortin receptor 4 [4])?
**A.** Its EC50 is 0.11 µM.

**Q.** `CC(C)N1C[C@H](C(=O)N2CCN(C3(CNCc4nccs4)CCCCC3)CC2)[C@@H](c2ccc(Cl)cc2)C1` was tested. Which Ki (Melanocortin receptor 4 [1]) did it give?
**A.** Its Ki is 0.13 µM.

**Q.** What about the Intrinsic activity (Melanocortin receptor 4 [2]) of the same compound?
**A.** Its Intrinsic activity is 72%.

**Q.** And the EC50 (Melanocortin receptor 4 [4])?
**A.** Its EC50 is 0.74 µM.

**Q.** `CC(C)N1C[C@H](C(=O)N2CCN(C3(CNCc4ccc(F)cc4)CCCCC3)CC2)[C@@H](c2ccc(Cl)cc2)C1` was tested. Which Ki (Melanocortin receptor 4 [1]) did it give?
**A.** Its Ki is 0.044 µM.

**Q.** What about the Intrinsic activity (Melanocortin receptor 4 [2]) of the same compound?
**A.** Its Intrinsic activity is 61%.

**Q.** What about the EC50 (Melanocortin receptor 4 [4]) of the same compound?
**A.** Its EC50 is 6.6 µM.

**Q.** `CC(C)N1C[C@H](C(=O)N2CCN(C3(CNCc4ccco4)CCCCC3)CC2)[C@@H](c2ccc(Cl)cc2)C1` was tested. Which Ki (Melanocortin receptor 4 [1]) did it give?
**A.** Its Ki is 0.038 µM.

**Q.** What about the Intrinsic activity (Melanocortin receptor 4 [2]) of the same compound?
**A.** The Intrinsic activity was 32%.

**Q.** What about the EC50 (Melanocortin receptor 4 [4]) of the same compound?
**A.** Its EC50 is 0.57 µM.

**Q.** With `CC(C)N1C[C@H](C(=O)N2CCN(C3(CNCc4cncnc4)CCCCC3)CC2)[C@@H](c2ccc(Cl)cc2)C1` as the compound, how does the Ki (Melanocortin receptor 4 [1]) read?
**A.** Its Ki is 0.22 µM.

**Q.** What about the Intrinsic activity (Melanocortin receptor 4 [2]) of the same compound?
**A.** Its Intrinsic activity is 66%.

**Q.** And the EC50 (Melanocortin receptor 4 [4])?
**A.** The EC50 was 0.22 µM.

**Q.** What does the source list for `CC(C)N1C[C@H](C(=O)N2CCN(C3(CNCc4ccc(N(C)C)cc4)CCCCC3)CC2)[C@@H](c2ccc(Cl)cc2)C1`?
**A.** Ki (Melanocortin receptor 4 [1]): 0.065 µM; Intrinsic activity (Melanocortin receptor 4 [2]): 16%; EC50 (Melanocortin receptor 4 [4]): 1.1 µM

**Q.** Which results are given for `CC(C)N1C[C@H](C(=O)N2CCN(C3(CNCc4ccsc4)CCCCC3)CC2)[C@@H](c2ccc(Cl)cc2)C1`?
**A.** Ki (Melanocortin receptor 4 [1]): 0.022 µM; Intrinsic activity (Melanocortin receptor 4 [2]): 31%; EC50 (Melanocortin receptor 4 [4]): 0.84 µM

**Q.** Which results are given for `CC(C)N1C[C@H](C(=O)N2CCN(C3(CNCc4cccs4)CCCCC3)CC2)[C@@H](c2ccc(Cl)cc2)C1`?
**A.** Ki (Melanocortin receptor 4 [1]): 0.037 µM; Intrinsic activity (Melanocortin receptor 4 [2]): 58%; EC50 (Melanocortin receptor 4 [4]): 0.59 µM

**Q.** How did the Ki (Melanocortin receptor 4 [1]) turn out when `CC(C)N1C[C@H](C(=O)N2CCN(C3(CNCc4ncc[nH]4)CCCCC3)CC2)[C@@H](c2ccc(Cl)cc2)C1` was run?
**A.** Its Ki is 0.56 µM.

**Q.** And the Intrinsic activity (Melanocortin receptor 4 [2])?
**A.** The Intrinsic activity was 69%.

**Q.** And the EC50 (Melanocortin receptor 4 [4])?
**A.** Its EC50 is 0.23 µM.

**Q.** Which Ki (Melanocortin receptor 4 [1]) does the source give for `CC(C)N1C[C@H](C(=O)N2CCN(C3(CNCc4ccccn4)CCCCC3)CC2)[C@@H](c2ccc(Cl)cc2)C1` here?
**A.** Its Ki is 0.076 µM.

**Q.** What about the Intrinsic activity (Melanocortin receptor 4 [2]) of the same compound?
**A.** The Intrinsic activity was 34%.

**Q.** And the EC50 (Melanocortin receptor 4 [4])?
**A.** Its EC50 is 1.2 µM.

**Q.** Which results are given for `O=C([C@H]1CN(C2CCOCC2)C[C@@H]1c1ccc(Cl)cc1)N1CCN(C2(CNCc3ccccc3)CCCCC2)CC1`?
**A.** Ki (Melanocortin receptor 4 [1]): 0.029 µM; Intrinsic activity (Melanocortin receptor 4 [2]): 70%; EC50 (Melanocortin receptor 4 [4]): 1 µM

**Q.** For `CC(C)N1C[C@H](C(=O)N2CCN(C3(CNCc4ccc(Cl)cc4)CCCCC3)CC2)[C@@H](c2ccc(Cl)cc2)C1`, which Ki (Melanocortin receptor 4 [1]) is on record?
**A.** Its Ki is 0.09 µM.

**Q.** What about the Intrinsic activity (Melanocortin receptor 4 [2]) of the same compound?
**A.** The Intrinsic activity was 29%.

**Q.** What about the EC50 (Melanocortin receptor 4 [4]) of the same compound?
**A.** The EC50 was 4.2 µM.

**Q.** With `CC(C)N1C[C@H](C(=O)N2CCN(C3(CNCc4ccc(F)cc4F)CCCCC3)CC2)[C@@H](c2ccc(Cl)cc2)C1` as the compound, how does the Ki (Melanocortin receptor 4 [1]) read?
**A.** The Ki was 0.011 µM.

**Q.** What about the Intrinsic activity (Melanocortin receptor 4 [2]) of the same compound?
**A.** The Intrinsic activity was 27%.

**Q.** What about the EC50 (Melanocortin receptor 4 [4]) of the same compound?
**A.** The EC50 was 1.3 µM.

**Q.** How did the Ki (Melanocortin receptor 4 [1]) turn out when `COc1ccc(CNCC2(N3CCN(C(=O)[C@H]4CN(C(C)C)C[C@@H]4c4ccc(Cl)cc4)CC3)CCCCC2)c(F)c1` was run?
**A.** The Ki was 0.0018 µM.

**Q.** And the Intrinsic activity (Melanocortin receptor 4 [2])?
**A.** The Intrinsic activity was 26%.

**Q.** And the EC50 (Melanocortin receptor 4 [4])?
**A.** The EC50 was 1.6 µM.

**Q.** With `O=C([C@H]1CN(C2CCCC2)C[C@@H]1c1ccc(Cl)cc1)N1CCN(C2(CNCc3ccccc3)CCCCC2)CC1` as the compound, how does the Ki (Melanocortin receptor 4 [1]) read?
**A.** Its Ki is 0.017 µM.

**Q.** And the Intrinsic activity (Melanocortin receptor 4 [2])?
**A.** The Intrinsic activity was 33%.

**Q.** And the EC50 (Melanocortin receptor 4 [4])?
**A.** The EC50 was 1.8 µM.

**Q.** `CC(C)N1C[C@H](C(=O)N2CCN(C3(CNCc4ccoc4)CCCCC3)CC2)[C@@H](c2ccc(Cl)cc2)C1` was tested. Which Ki (Melanocortin receptor 4 [1]) did it give?
**A.** Its Ki is 0.075 µM.

**Q.** And the Intrinsic activity (Melanocortin receptor 4 [2])?
**A.** The Intrinsic activity was 53%.

**Q.** What about the EC50 (Melanocortin receptor 4 [4]) of the same compound?
**A.** The EC50 was 0.48 µM.

**Q.** `CC(C)N1C[C@H](C(=O)N2CCN(C3(CNCc4ccccc4Cl)CCCCC3)CC2)[C@@H](c2ccc(Cl)cc2)C1` was tested. Which Ki (Melanocortin receptor 4 [1]) did it give?
**A.** Its Ki is 0.025 µM.

**Q.** And the Intrinsic activity (Melanocortin receptor 4 [2])?
**A.** The Intrinsic activity was 75%.

**Q.** And the EC50 (Melanocortin receptor 4 [4])?
**A.** The EC50 was 1.3 µM.

**Q.** With `O=C([C@H]1CN(C2CCCCC2)C[C@@H]1c1ccc(Cl)cc1)N1CCN(C2(CNCc3ccccc3)CCCCC2)CC1` as the compound, how does the Ki (Melanocortin receptor 4 [1]) read?
**A.** The Ki was 0.0055 µM.

**Q.** And the Intrinsic activity (Melanocortin receptor 4 [2])?
**A.** Its Intrinsic activity is 16%.

**Q.** And the IC50 (Melanocortin receptor 4 [3])?
**A.** Its IC50 is 0.13 µM.

**Q.** What about the EC50 (Melanocortin receptor 4 [4]) of the same compound?
**A.** Its EC50 is 1.5 µM.

**Q.** `COc1ccc(CNCC2(N3CCN(C(=O)[C@H]4CN(C(C)C)C[C@@H]4c4ccc(Cl)cc4)CC3)CCCCC2)cc1F` was tested. Which Ki (Melanocortin receptor 4 [1]) did it give?
**A.** Its Ki is 0.0005 µM.

**Q.** What about the Intrinsic activity (Melanocortin receptor 4 [2]) of the same compound?
**A.** Its Intrinsic activity is 10%.

**Q.** And the IC50 (Melanocortin receptor 4 [3])?
**A.** Its IC50 is 0.048 µM.

**Q.** And the Ki [5]?
**A.** The Ki was 3.9 µM.

**Q.** And the Ki (Melanocortin receptor 3)?
**A.** The Ki was 0.76 µM.

**Q.** What about the Ki (Melanocortin receptor 5) of the same compound?
**A.** Its Ki is 0.54 µM.

**Q.** What about the Ki (Melanocortin receptor 4 [6]) of the same compound?
**A.** The Ki was 0.0006 µM.

**Q.** And the EC50 (Melanocortin receptor 4 [4])?
**A.** Its EC50 is 0.17 µM.

**Q.** Which Ki (Melanocortin receptor 4 [1]) does the source give for `COc1cccc(CNCC2(N3CCN(C(=O)[C@H]4CN(C(C)C)C[C@@H]4c4ccc(Cl)cc4)CC3)CCCCC2)c1` here?
**A.** The Ki was 0.03 µM.

**Q.** What about the Intrinsic activity (Melanocortin receptor 4 [2]) of the same compound?
**A.** The Intrinsic activity was 39%.

**Q.** What about the EC50 (Melanocortin receptor 4 [4]) of the same compound?
**A.** The EC50 was 1.2 µM.

**Q.** With `COc1ccccc1CNCC1(N2CCN(C(=O)[C@H]3CN(C(C)C)C[C@@H]3c3ccc(Cl)cc3)CC2)CCCCC1` as the compound, how does the Ki (Melanocortin receptor 4 [1]) read?
**A.** The Ki was 0.062 µM.

**Q.** And the Intrinsic activity (Melanocortin receptor 4 [2])?
**A.** Its Intrinsic activity is 48%.

**Q.** What about the EC50 (Melanocortin receptor 4 [4]) of the same compound?
**A.** Its EC50 is 1 µM.
